Measured values reported in patent US20250215039A1, “NUCLEOSIDES FOR TREATING CANCER” (PRIMEFOUR THERAPEUTICS, INC., priority 2022, published 2025).
Where two headings read alike, the source gives them in different places.

Test system: cancer cell lines
Experiment: Cancer cell proliferation activity (CellTiterGlo, 72 h)
Format: cell-based
Conditions: 72 h, 72 h, read-out: IC50
Outline: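 Readout is CellTiterGlo luminescence after 72 h compound exposure (0.1% DMSO final), started one day post-seeding, at 37 °C.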

- IC50 (5637 cell line (bladder)): 0.66 µM
- IC50 (AS49 cell line (lung)): 4.06 µM
- IC50 (CLS439 cell line (bladder)): 9.83 µM
- IC50 (HS729 cell line (muscle)): 0.86 µM
- IC50 (JAR cell line (placenta)): 0.33 µM
- IC50 (Homo sapiens, 22Rv1, 72 h, 22RV1 cell line (prostate)): 1.24 µM
- IC50 (Homo sapiens, 786-0, 72 h, 786O cell line (kidney)): 0.4 µM
- IC50 (Homo sapiens, A204, 72 h, A204 cell line (muscle)): 0.27 µM
- IC50 (Homo sapiens, A673, 72 h, A673 cell line (bone)): 1.95 µM
- IC50 (Homo sapiens, A2780, 72 h, A2780 cell line (ovary)): 0.77 µM
- IC50 (Homo sapiens, A-375, 72 h, A375 cell line (skin)): 0.21 µM
- IC50 (Homo sapiens, A-431, 72 h, A431 cell line (skin)): 0.29 µM
- IC50 (Homo sapiens, ACHN, ACHN cell line (kidney)): 2.85 µM
- IC50 (Homo sapiens, ASPC1, 72 h, ASPC1 cell line (pancreas)): 0.23 µM
- IC50 (Homo sapiens, BT-20, 72 h, BT20 cell line (breast)): 0.39 µM
- IC50 (Homo sapiens, BXPC-3, 72 h, BXPC3 cell line (pancreas)): 3.38 µM
- IC50 (Homo sapiens, C-33-A, C33A cell line (cervical)): 0.65 µM
- IC50 (Homo sapiens, CAKI-1, 72 h, CAKI1 cell line (kidney)): 0.03 µM
- IC50 (Homo sapiens, COLO 205, 72 h, COLO205 cell line (colon)): 0.81 µM
- IC50 (Homo sapiens, COLO-678, 72 h, COLO678 cell line (colon)): 4.15 µM
- IC50 (Homo sapiens, Ca-Ski, CASKI cell line (cervical)): 0.2 µM
- IC50 (Homo sapiens, Caco-2, 72 h, CACO2 cell line (colon)): 0.66 µM
- IC50 (Homo sapiens, Calu-6, 72 h, CALU6 cell line (lung)): 0.3 µM
- IC50 (Homo sapiens, DLD-1, 72 h, DLD1 cell line (colon)): 2.49 µM
- IC50 (Homo sapiens, DU-145, 72 h, DU145 cell line (prostate)): 0.16 µM
- IC50 (Homo sapiens, EFO-21, 72 h, EFO21 cell line (ovary)): 0.54 µM
- IC50 (Homo sapiens, EJ-28, 72 h, EJ28 cell line (bladder)): 0.44 µM
- IC50 (Homo sapiens, Granta-519, 72 h, GRANTA-519 cell line (hematological)): 3.46 µM
- IC50 (Homo sapiens, HCT-15, 72 h, HCT15 cell line (colon)): 2.07 µM
- IC50 (Homo sapiens, HCT-116, 72 h, HCT116 cell line (colon)): 0.62 µM
- IC50 (Homo sapiens, HEK293, 72 h, HEK293 cell line (kidney)): 0.46 µM
- IC50 (Homo sapiens, HL-60, 72 h, HL-60 cell line (hematological)): 0.67 µM
- IC50 (Homo sapiens, HT-29, 72 h, HT29 cell line (colon)): 0.3 µM
- IC50 (Homo sapiens, HT-1080, 72 h, HT1080 cell line (connective tissue)): > 50 µM
- IC50 (Homo sapiens, HeLa, HELA cell line (cervical)): 0.49 µM
- IC50 (Homo sapiens, HepG2, 72 h, HEPG2 cell line (liver)): 0.45 µM
- IC50 (Homo sapiens, Hs-578T, HS578T cell line, breast): 0.47 µM
- IC50 (Homo sapiens, IGROV-1, 72 h, IGROV1 cell line (ovary)): 0.34 µM
- IC50 (Homo sapiens, IMR-90, 72 h, IMR90 cell line, lung): 0.45 µM
- IC50 (Homo sapiens, J82, 72 h, J82 cell line (bladder)): 0.38 µM
- IC50 (Homo sapiens, JEG-3, 72 h, JEG3 cell line (placenta)): 0.38 µM
- IC50 (Homo sapiens, JIMT-1, 72 h, JIMT1 cell line (breast)): 0.09 µM
- IC50 (Homo sapiens, K562, 72 h, K-562 cell line (hematological)): 3.95 µM
- IC50 (Homo sapiens, Kasumi 1, 72 h, KASUMI-1 cell line (hematological)): 0.08 µM
- IC50 (Homo sapiens, L-363, 72 h, L-363 cell line (hematological)): 0.42 µM
- IC50 (Homo sapiens, LoVo, LOVO cell line (colon)): 0.19 µM
- IC50 (Homo sapiens, MCF7, 72 h, MCF7 cell line (breast)): > 50 µM
- IC50 (Homo sapiens, MDA-MB-231, 72 h, MDAMB231 cell line (breast)): 7.32 µM
- IC50 (Homo sapiens, MDA-MB-435, 72 h, MDAMB435 cell line (skin)): 1.69 µM
- IC50 (Homo sapiens, MDA-MB-436, 72 h, MDAMB436 cell line (breast)): 0.25 µM
- IC50 (Homo sapiens, MDA-MB-468, 72 h, MDAMB468 cell line (breast)): 0.24 µM
- IC50 (Homo sapiens, MG-63, 72 h, MG63 cell line (bone)): > 50 µM
- IC50 (Homo sapiens, MHH-ES-1, 72 h, MHHES1 cell line (bone)): 0.5 µM
- IC50 (Homo sapiens, MIA PaCa-2, 72 h, MIAPACA2 cell line (pancreas)): > 50 µM
- IC50 (Homo sapiens, MINO, MINO cell line (hematological)): 0.18 µM
- IC50 (Homo sapiens, MV4-11, 72 h, MV4-11 cell line (hematological)): 0.16 µM
- IC50 (Homo sapiens, NCI-H23, 72 h, NCI-H23 cell line (lung)): 0.64 µM
- IC50 (Homo sapiens, NCI-H82, 72 h, NCIH82 cell line (lung)): 0.49 µM
- IC50 (Homo sapiens, NCI-H292, 72 h, NCIH292 cell line (lung)): 2.97 µM
- IC50 (Homo sapiens, NCI-H460, 72 h, NCIH460 cell line (lung)): 0.6 µM
- IC50 (Homo sapiens, OVCAR-3, 72 h, OVCAR3 cell line (ovary)): 0.18 µM
- IC50 (Homo sapiens, OVCAR-4, 72 h, OVCAR4 cell line (ovary)): 0.6 µM
- IC50 (Homo sapiens, PANC-1, 72 h, PANC1 cell line (pancreas)): > 50 µM
- IC50 (Homo sapiens, PC-3, 72 h, PC3 cell line (prostate)): 0.66 µM
- IC50 (Homo sapiens, PLC-PRF-5, 72 h, PLCPRF5 cell line (liver)): 4.95 µM
- IC50 (Homo sapiens, Panc1005, 72 h, PANC1005 cell line (pancreas)): 0.37 µM
- IC50 (Homo sapiens, RD, RD cell line (muscle)): 0.87 µM
- IC50 (Homo sapiens, Ramos, RAMOS cell line (hematological)): 0.6 µM
- IC50 (Homo sapiens, SAOS-2, 72 h, SAOS2 cell line (bone)): 0.36 µM
- IC50 (Homo sapiens, SF-268, 72 h, SF268 cell line (brain)): > 50 µM
- IC50 (Homo sapiens, SF-295, 72 h, SF295 cell line (brain)): 1.73 µM
- IC50 (Homo sapiens, SK-BR-3, 72 h, SKBR3 cell line (breast)): 0.07 µM
- IC50 (Homo sapiens, SK-HEP1, 72 h, SKHEP1 cell line (liver)): 3.41 µM
- IC50 (Homo sapiens, SK-LMS-1, 72 h, SKLMS1 cell line (uterus)): 0.34 µM
- IC50 (Homo sapiens, SK-MEL-5, 72 h, SKMEL5 cell line, skin): 4.01 µM
- IC50 (Homo sapiens, SK-MEL-28, 72 h, SKMEL28 cell line (skin)): 0.67 µM
- IC50 (Homo sapiens, SK-N-AS, SKNAS cell line (brain)): 0.63 µM
- IC50 (Homo sapiens, SK-N-SH, SKNSH cell line (brain)): 0.32 µM
- IC50 (Homo sapiens, SK-OV-3, 72 h, SKOV3 cell line (ovary)): 0.62 µM
- IC50 (Homo sapiens, SNB-75, 72 h, SNB75 cell line (brain)): 1.51 µM
- IC50 (Homo sapiens, SU-DHL10, 72 h, SU-DHL-10 cell line (hematological)): 0.53 µM
- IC50 (Homo sapiens, SU-DHL-6, 72 h, SU-DHL-6 cell line (hematological)): 0.36 µM
- IC50 (Homo sapiens, SW-620, 72 h, SW620 cell line (colon)): 0.54 µM
- IC50 (Homo sapiens, T-24, 72 h, T24 cell line (bladder)): 0.71 µM
- IC50 (Homo sapiens, TE-671, 72 h, TE671 cell line (muscle)): 1.92 µM
- IC50 (Homo sapiens, THP-1, 72 h, THP-1 cell line (hematological)): > 50 µM
- IC50 (Homo sapiens, U2OS, U2OS cell line (bone)): 0.61 µM
- IC50 (Homo sapiens, U-87 MG, U87MG cell line (brain)): 3.66 µM
- IC50 (Homo sapiens, UMUC3, 72 h, UMUC3 cell line (bladder)): 3.4 µM
- IC50 (Homo sapiens, UO-31, 72 h, UO31 cell line (kidney)): 0.28 µM
- IC50 (Homo sapiens, WSU-NHL, WSU-NHL cell line (hematological)): 0.43 µM
- IC50 (MT-3, 72 h, MT3 cell line (breast)): 0.36 µM
- IC50 (NCI-H358M, NCIH358M cell line (lung)): 0.43 µM
- IC50 (PBMC, PBMC (hematological)): > 50 µM
- IC50 (RD-ES, RDES cell line (bone)): 0.27 µM
Structure (SMILES): COC[C@]1(CO)O[C@@H](n2cnc3c(N)nc(F)nc32)C[C@@H]1O [Cpd. No. 140, (2S,3S,5R)-5-(6-amino-2-fluoro-9H-purin-9-yl)-2-(hydroxymethyl)-2-(methoxymethyl)tetrahydrofuran-3-ol]
